Experiments:
[1] = target: T1, Alpha-2A adrenergic receptor (Homo sapiens, UniProt P08913); assay type: functional, cell-based
T1 sequence (P08913 whole entry): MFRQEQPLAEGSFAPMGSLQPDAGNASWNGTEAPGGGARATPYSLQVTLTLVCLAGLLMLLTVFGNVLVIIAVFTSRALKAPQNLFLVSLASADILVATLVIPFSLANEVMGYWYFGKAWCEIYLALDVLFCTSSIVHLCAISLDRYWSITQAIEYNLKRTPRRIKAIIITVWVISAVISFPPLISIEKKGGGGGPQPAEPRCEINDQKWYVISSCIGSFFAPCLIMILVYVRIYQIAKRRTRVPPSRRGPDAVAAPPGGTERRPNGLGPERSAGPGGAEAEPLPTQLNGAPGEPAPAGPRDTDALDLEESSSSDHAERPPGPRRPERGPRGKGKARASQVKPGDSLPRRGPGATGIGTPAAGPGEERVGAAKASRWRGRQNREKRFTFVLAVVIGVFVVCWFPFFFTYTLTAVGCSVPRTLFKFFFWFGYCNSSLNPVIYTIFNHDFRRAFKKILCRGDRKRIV

Glucocorticoid receptor = target: T2, Glucocorticoid receptor (Homo sapiens, UniProt P04150)
T2 sequence (P04150 whole entry): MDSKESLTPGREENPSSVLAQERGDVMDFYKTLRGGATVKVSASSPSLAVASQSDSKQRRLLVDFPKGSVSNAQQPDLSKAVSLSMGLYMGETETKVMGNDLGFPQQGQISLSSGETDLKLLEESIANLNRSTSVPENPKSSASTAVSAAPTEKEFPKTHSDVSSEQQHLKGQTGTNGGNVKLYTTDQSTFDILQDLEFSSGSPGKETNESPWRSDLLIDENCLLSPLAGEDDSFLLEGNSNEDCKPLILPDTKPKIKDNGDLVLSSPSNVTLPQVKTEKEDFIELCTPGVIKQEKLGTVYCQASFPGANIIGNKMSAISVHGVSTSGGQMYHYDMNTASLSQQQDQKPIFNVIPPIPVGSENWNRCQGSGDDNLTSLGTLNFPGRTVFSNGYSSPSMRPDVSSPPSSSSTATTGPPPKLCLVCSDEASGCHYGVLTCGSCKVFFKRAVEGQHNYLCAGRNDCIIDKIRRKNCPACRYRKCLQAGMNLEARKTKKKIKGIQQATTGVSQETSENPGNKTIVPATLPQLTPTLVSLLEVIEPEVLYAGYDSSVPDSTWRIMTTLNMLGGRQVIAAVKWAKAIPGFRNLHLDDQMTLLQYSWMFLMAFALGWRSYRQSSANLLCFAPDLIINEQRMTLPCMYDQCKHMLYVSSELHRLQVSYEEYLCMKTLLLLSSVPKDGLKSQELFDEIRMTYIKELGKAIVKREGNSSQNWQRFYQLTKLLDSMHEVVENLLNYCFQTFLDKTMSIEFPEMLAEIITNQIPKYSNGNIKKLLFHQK

[2] = target: T1, Alpha-2A adrenergic receptor; assay type: functional, cell-based; remark: listed apart in the source
Progesterone receptor = target: T3, Progesterone receptor (Homo sapiens, UniProt P06401); assay type: functional
T3 sequence (P06401 whole entry): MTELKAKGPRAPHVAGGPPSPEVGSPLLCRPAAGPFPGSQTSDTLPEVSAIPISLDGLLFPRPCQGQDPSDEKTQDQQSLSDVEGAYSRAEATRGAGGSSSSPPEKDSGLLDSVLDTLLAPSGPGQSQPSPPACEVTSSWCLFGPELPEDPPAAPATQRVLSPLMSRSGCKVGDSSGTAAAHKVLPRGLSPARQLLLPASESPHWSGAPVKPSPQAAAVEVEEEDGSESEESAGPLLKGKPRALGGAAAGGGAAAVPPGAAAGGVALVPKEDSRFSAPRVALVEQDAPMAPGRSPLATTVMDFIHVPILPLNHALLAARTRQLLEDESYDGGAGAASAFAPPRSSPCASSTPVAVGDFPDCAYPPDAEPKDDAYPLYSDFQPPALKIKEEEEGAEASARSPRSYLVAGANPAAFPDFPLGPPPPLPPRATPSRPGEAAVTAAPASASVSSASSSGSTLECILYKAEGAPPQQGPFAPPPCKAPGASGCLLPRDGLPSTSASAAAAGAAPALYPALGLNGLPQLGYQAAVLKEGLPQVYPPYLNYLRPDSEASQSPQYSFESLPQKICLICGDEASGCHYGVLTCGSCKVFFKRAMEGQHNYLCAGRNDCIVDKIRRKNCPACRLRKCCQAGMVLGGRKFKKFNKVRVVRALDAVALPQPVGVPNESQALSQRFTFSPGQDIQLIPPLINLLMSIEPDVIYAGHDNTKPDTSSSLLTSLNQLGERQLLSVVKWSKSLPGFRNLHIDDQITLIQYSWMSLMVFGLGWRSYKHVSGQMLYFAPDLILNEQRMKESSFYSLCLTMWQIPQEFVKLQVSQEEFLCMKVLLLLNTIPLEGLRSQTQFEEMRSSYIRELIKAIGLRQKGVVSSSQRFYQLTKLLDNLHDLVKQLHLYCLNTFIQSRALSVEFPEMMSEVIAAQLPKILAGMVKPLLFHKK

[3] = target: T4, Prostaglandin G/H synthase 1 (Rattus norvegicus, UniProt Q63921); assay type: functional
T4 sequence (Q63921 whole entry): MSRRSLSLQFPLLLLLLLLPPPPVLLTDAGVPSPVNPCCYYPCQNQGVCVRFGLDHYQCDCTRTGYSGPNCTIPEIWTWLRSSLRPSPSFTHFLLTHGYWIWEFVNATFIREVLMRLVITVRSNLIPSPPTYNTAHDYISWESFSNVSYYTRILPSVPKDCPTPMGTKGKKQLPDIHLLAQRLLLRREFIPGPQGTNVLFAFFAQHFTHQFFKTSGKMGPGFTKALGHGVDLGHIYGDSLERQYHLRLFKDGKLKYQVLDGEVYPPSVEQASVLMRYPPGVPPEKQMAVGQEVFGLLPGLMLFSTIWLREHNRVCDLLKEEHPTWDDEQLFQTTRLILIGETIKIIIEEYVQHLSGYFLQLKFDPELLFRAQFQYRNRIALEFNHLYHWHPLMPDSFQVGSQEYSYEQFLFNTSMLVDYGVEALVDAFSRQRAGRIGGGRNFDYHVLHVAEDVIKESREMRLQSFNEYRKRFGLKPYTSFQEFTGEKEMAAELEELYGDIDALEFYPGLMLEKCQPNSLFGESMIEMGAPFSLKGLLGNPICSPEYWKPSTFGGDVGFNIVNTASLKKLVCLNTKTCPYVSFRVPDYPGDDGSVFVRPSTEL

Cannabinoid receptor 1 = Cannabinoid receptor 1 (Homo sapiens, UniProt P21554); assay type: functional, cell-based
Further: assay procedure not described here.

Chain of Cannabinoid receptor 1 (P21554 whole entry): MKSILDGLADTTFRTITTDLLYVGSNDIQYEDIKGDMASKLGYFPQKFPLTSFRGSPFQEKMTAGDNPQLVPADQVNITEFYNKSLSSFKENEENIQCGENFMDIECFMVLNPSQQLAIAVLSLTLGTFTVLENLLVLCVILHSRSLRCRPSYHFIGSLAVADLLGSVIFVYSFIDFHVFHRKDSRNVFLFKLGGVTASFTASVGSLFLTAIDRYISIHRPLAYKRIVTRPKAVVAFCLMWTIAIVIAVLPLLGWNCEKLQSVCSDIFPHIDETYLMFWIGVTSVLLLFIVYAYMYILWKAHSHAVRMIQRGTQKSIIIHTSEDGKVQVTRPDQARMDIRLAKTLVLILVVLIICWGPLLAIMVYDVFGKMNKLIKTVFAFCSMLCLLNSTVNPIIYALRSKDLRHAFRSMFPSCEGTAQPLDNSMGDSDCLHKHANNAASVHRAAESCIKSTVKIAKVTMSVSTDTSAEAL

| Molecule | AC50 [1] [µM] | AC50 (Glucocorticoid receptor) [µM] | AC50 [2] [µM] | AC50 (Progesterone receptor) [µM] | AC50 [3] [µM] | AC50 (Cannabinoid receptor 1) [µM] |
| --- | --- | --- | --- | --- | --- | --- |
| NCCCC(O)(P(=O)(O)O)P(=O)(O)O [ALENDRONIC ACID] | > 10 | > 30 | > 10 |  |  |  |
| NS(=O)(=O)c1cc2c(cc1C(F)(F)F)NC(Cc1ccccc1)NS2(=O)=O (stereo not given) [BENDROFLUMETHIAZIDE] | > 10 |  | > 10 | > 10 | > 10 |  |
| CCC(=O)OCC(=O)[C@@]1(OC(=O)CC)[C@@H](C)C[C@H]2[C@@H]3CCC4=CC(=O)C=C[C@]4(C)[C@@]3(F)[C@@H](O)C[C@@]21C [BETAMETHASONE DIPROPIONATE] | > 30 |  | > 30 |  | > 10 | > 30 |
| CS(=O)(=O)OCCCCOS(C)(=O)=O [BUSULFAN] | > 30 |  | > 30 | > 30 | > 30 | > 30 |
| CCOC(=O)NNc1ccc(N(CC)CC(C)O)nn1 (stereo not given) [CADRALAZINE] | > 30 |  | > 30 | > 30 | 0.5 | > 30 |
| CCCC(C)(COC(N)=O)COC(=O)NC(C)C (stereo not given) [CARISOPRODOL] | > 10 |  | > 10 |  | > 30 | > 30 |
| C=CC1=C(C(=O)O)N2C(=O)[C@@H](NC(=O)/C(=N\OCC(=O)O)c3csc(N)n3)[C@H]2SC1 [CEFIXIME] | > 30 |  | > 30 | > 30 | > 30 | > 30 |
| CO[C@@]1(NC(=O)Cc2cccs2)C(=O)N2C(C(=O)O)=C(COC(N)=O)CS[C@@H]21 [CEFOXITIN] | > 30 |  | > 30 | > 30 | > 30 | > 30 |
| CC(C)(C)NCC(O)c1cc(Cl)c(N)c(Cl)c1 (stereo not given) [CLENBUTEROL] | > 30 |  | > 30 | > 30 | > 30 | > 30 |
| N[C@H](Cc1cc(I)c(Oc2cc(I)c(O)c(I)c2)c(I)c1)C(=O)O [DEXTROTHYROXINE] | > 10 | 25 | > 10 |  | > 30 | > 30 |
| C[C@@H]1C[C@H]2[C@@H]3C[C@H](F)C4=CC(=O)C=C[C@]4(C)[C@@]3(F)[C@@H](O)C[C@]2(C)[C@H]1C(=O)CO [DIFLUCORTOLONE] |  |  |  | > 0.03 | > 30 |  |
| Clc1ccc2c(c1)C(c1ccccc1)=NCc1nncn1-2 [ESTAZOLAM] | > 10 | > 30 | > 10 |  | > 30 | > 30 |
| CC(=O)OCC(CCn1cnc2cnc(N)nc21)COC(C)=O [FAMCICLOVIR] | > 10 | > 30 | > 10 |  | > 30 | > 30 |
| O=C(O)c1ccccc1Nc1cccc(C(F)(F)F)c1 [FLUFENAMIC ACID] | > 30 | > 30 | > 30 |  | 18.3 | > 30 |
| C#C[C@]1(O)CC[C@H]2[C@@H]3CCC4=CC(=O)CCC4=C3C=C[C@@]21CC [GESTRINONE] | > 30 | 0.01 | 11 |  | > 30 | > 30 |
| COC1=C(OC)C(=O)C(CCCCCCCCCCO)=C(C)C1=O [IDEBENONE] | > 10 | > 30 | > 10 |  | > 30 | > 30 |
| CC#CCn1c(N2CCC[C@@H](N)C2)nc2c1c(=O)n(Cc1nc(C)c3ccccc3n1)c(=O)n2C [LINAGLIPTIN] | > 10 | > 30 | > 10 |  | > 30 |  |
| O=C1CN=C(c2ccccc2)c2cc(Cl)ccc2N1 [NORDAZEPAM] | > 10 | > 30 | > 10 |  | > 30 | > 30 |
| CC(CCc1ccccc1)NC(C)C(O)c1ccc(O)cc1 (stereo not given) [NYLIDRIN] | > 10 | > 30 | 19 |  | > 30 | > 30 |
| O=C1Nc2ccc(Cl)cc2C(c2ccccc2)=NC1O (stereo not given) [OXAZEPAM] | > 10 |  | > 10 |  | > 30 | > 30 |
| CC(=O)c1ccc2c(c1)N(CCCN1CCC(CCO)CC1)c1ccccc1S2 [PIPERACETAZINE] | > 30 | > 30 |  |  | > 30 | > 30 |
| C[n+]1ccccc1/C=N/O [PRALIDOXIME] | > 30 |  | > 30 |  |  | > 30 |
| Cc1cc2nc3c(=O)[nH]c(=O)nc-3n(C[C@H](O)[C@H](O)[C@H](O)COP(=O)(O)O)c2cc1C [RIBOFLAVIN 5'-PHOSPHATE] |  | 19 |  |  | 0.9 |  |
| CC(C)CC(N(C)C)C1(c2ccc(Cl)cc2)CCC1 (stereo not given) [SIBUTRAMINE] | > 30 | > 30 | 30 |  | > 30 | > 30 |
| COc1cc2nccc(Oc3ccc(NC(=O)Nc4cc(C)on4)c(Cl)c3)c2cc1OC [TIVOZANIB] |  |  |  | > 3 | > 3 |  |
| CN1[C@@H]2CC[C@H]1C[C@@H](OC(=O)c1c[nH]c3ccccc13)C2 [TROPISETRON] | > 30 |  | > 30 |  | > 30 | > 30 |
| COc1ccc(C(CN(C)C)C2(O)CCCCC2)cc1 (stereo not given) [VENLAFAXINE] | > 10 |  | > 10 |  | > 30 |  |
| N#C[C@@H]1CCCN1C(=O)CNC12CC3CC(CC(O)(C3)C1)C2 [VILDAGLIPTIN] | > 30 | > 30 | > 30 |  | > 30 |  |
| COLISTIN | > 30 |  | > 30 |  |  | > 30 |

Source: ChEMBL document CHEMBL5291721, “A preclinical secondary pharmacology resource illuminates target-adverse drug reaction associations of marketed drugs” (Nat Commun, 2023)
